The test system of one data set is fundus of the stomach. As to the kind of experiment: Gastric tone measured by an electronic barostat in conscious dogs. The format is in vivo. As to conditions: conscious female beagle dogs; 0.63 mg/kg s.c.; 1 hour after administration of the test compound. On the procedure: C.1. Gastric Tone Measured by an Electronic Barostat in Conscious Dogs
Gastric tone cannot be measured by manometric methods. Therefore an electronic barostat was used. This allows the study of the physiological pattern and regulation of gastric tone in conscious dogs and the influence of test-compounds on this tone.
The barostat consists of an air injection system which is connected by a double-lumen 14-French polyvinyl tube to an ultrathin flaccid polyethylene bag (maximal volume: ±700 ml). Variations in gastric tone were measured by recording changes in the volume of air within an intragastric bag, maintained at a constant pressure, or at varying pressure levels. The barostat maintains a constant pressure (preselected) within a flaccid air-filled bag introduced into the stomach, changing the volume of air within the bag by an electronic feedback system.
Thus, the barostat measures gastric motor activity (contraction or relaxation) as changes in intragastric volume (decrease or increase resp.) at a constant intragastric pressure. The barostat consists of a strain gauge linked by an electronic relay to an air injection-aspiration system. Both the strain gauge and the injection system are connected by means of double-lumen polyvinyl tube to an ultrathin polyethylene bag. A dial in the barostat allows selection of the pressure level to be maintained within the intragastric bag.
Female beagle dogs, weighing 7-17 kg, were trained to stand quietly in Pavlov frames. They were implanted with a gastric cannula under general anaesthesia and aseptic precautions. After a median laparotomy, an incision was made through the gastric wall in longitudinal direction between the greater and the lesser curve, 2 cm above the nerves of Latarjet. The cannula was secured to the gastric wall by means of a double purse string suture and brought out via a stub wound at the left quadrant of the hypochondrium. Dogs were allowed a recovery period of two weeks.
At the beginning of the experiment, the cannula was opened in order to remove any gastric juice or food remnants. If necessary, the stomach was cleansed with 40 to 50 ml lukewarm water. The ultrathin bag of the barostat was positioned into the fundus of the stomach through the gastric cannula. In order to ensure easy unfolding of the intragastric bag during the experiment, a volume of 150-200 ml was injected into the bag by raising the pressure to maximally 14 mm Hg (about 1.87 kPa) very briefly. This procedure was repeated twice. A stabilisation period of 1 hour was allowed. […]

In the next data set the test system is basilar arteries. As to the kind of experiment: Vasoconstrictive activity on basilar artery. Further details: species or system pigs. Conditions: Sus scrofa; pig basilar artery segments, organ bath; response relative to serotonin 3×10^−7 M; estimated from three preparations; read-out: ED50-value (concentration causing 50% of the constrictive response obtained with serotonin). On the procedure:
C.2 Vasoconstrictive Activity on Basilar Artery
Segments of basilar arteries taken from pigs (anaesthetised with sodium pentobarbital) were mounted for recording of isometric tension in organ baths. The preparations were bathed in Krebs-Henseleit solution. The solution was kept at 37° C. and gassed with a mixture of 95% O2-5% CO2. The preparations were stretched until a stable basal tensions of 2 grams was obtained.
The preparations were made to constrict with serotonin (3×10^−7 M). The response to the addition of serotonin was measured and subsequently the serotonin was washed away. This procedure was repeated until stable responses were obtained. Subsequently the test compound was administered to the organ bath and the constriction of the preparation was measured. This constrictive response was expressed as a percentage of the response to serotonin as measured previously.

This is an account of results in US6747045B2, “(Benzodioxan, benzofuran or benzopyran) derivatives having fundic relaxation properties” (Janssen Pharmaceutica N.V., priority 1997, dated 2004).

As usually defined, the melting point is the temperature, or range, at which the solid turns liquid.

Some results are limits rather than exact numbers.

Turning to `O=C(O)C(=O)O.O=C1NCCCN1CCCNCC1CCc2ccccc2O1` (racemic) [Compound 1, (±)-1-[3-[[(3,4-dihydro-2H-1-benzopyran-2-yl)methyl]amino]-propyl]-tetrahydro-2(1H)-pyrimidinone ethanedioate(1:1)], the melting point was found to be 226.3 °C. The “% effect (percentual effect on relaxation of the fundus)” value with fundus of the stomach was 23.0%. Further, the EC50 with basilar arteries is above 1 µM.
For `O=C1NCCCN1CCCN(Cc1ccccc1)CC1CCc2ccccc2O1` (racemic) [Compound 13, (±)-1-[3-[[(3,4-dihydro-2H-1-benzopyran-2-yl)methyl](phenylmethyl)amino]propyl]-tetrahydro-2(1H)-pyrimidinone], the melting point is 94.7 °C. Besides, in the data set on fundus of the stomach, the “% effect (percentual effect on relaxation of the fundus)” value stood at 0.4%. Moreover, in the data set on basilar arteries, the EC50 was above 1 µM.
As for `O=C(O)C(=O)O.S=C1NCCCN1CCCNCC1CCc2ccccc2O1` (racemic) [Compound 14, (±)-1-[3-[[(3,4-dihydro-2H-1-benzopyran-2-yl)-methyl]amino]propyl]tetrahydro-2(1H)-pyrimidinethione ethanedioate(1:1)], the melting point is 217.6 °C. Also, in the data set with basilar arteries, the EC50 is above 1 µM.
`N#CN=C1NCCCN1CCCNCC1CCc2ccccc2O1` (racemic) [Compound 21, (±)-[1-[3-[[(3,4-dihydro-2H-1-benzopyran-2-yl)-methyl]-amino]propyl]hexahydro-2-pyrimidinylidene]cyanamide ethanedioate (1:1)]: the melting point stood at 177.5 °C. In addition, in the data set with basilar arteries, the EC50 was 0.59 µM.
In the case of `NC(=O)Nc1nccn1C1CCN(CC2CCc3ccccc3O2)CC1` (racemic) [Compound 66, (±)-[1-[1-[(3,4-dihydro-2H-1-benzopyran-2-yl)methyl]-4-piperidinyl]-1H-imidazol-2-yl]urea], in the data set on basilar arteries, the EC50 is above 1 µM.
For the compound `O=C(O)C(=O)O.O=C1NCCCN1CCCNC[C@H]1CCc2ccccc2O1` [Compound 3, (R)-1-[3-[[(3,4-dihydro-2H-1-benzopyran-2-yl)methyl]amino]propyl]-tetrahydro-2(1H)-pyrimidinone ethanedioate (1:1)], the “% effect (percentual effect on relaxation of the fundus)” value with fundus of the stomach was 36.2%. Further, the EC50 in the data set on basilar arteries is above 1 µM.
Turning to `N#CNc1nccn1C1CCN(CC2CCc3ccccc3O2)CC1` (stereo not drawn) [Compound 59, [1-[1-[(3,4-dihydro-2H-1-benzopyran-2-yl)methyl]-4-piperidinyl]1H-imidazol-2-yl]cyanamide], the EC50 in the data set on basilar arteries was above 1 µM.
As for “(RR,SS)-1-[1-[2-(3,4-dihydro-2H-1-benzopyran-2-yl)-2-hydroxyethyl]-4-piperidinyl]-2-imidazolidinone [Compound 20]”, the “% effect (percentual effect on relaxation of the fundus)” value in the data set on fundus of the stomach is on record as 9.5%.
